Measured values reported in article PMC4890168 (Journal of medicinal chemistry, 2016).

How the values were obtained:
PKA = PKA (Homo sapiens, UniProt P17612); test: PKA inhibition, ADP-Glo Kinase Assay
[1] = test system: cardiomyocytes isolated from adult mice; test: Contractility in mouse cardiomyocytes; conditions: for potency at stimulating cardiomyocyte contraction: compared with lead 2, isoproterenol stimulation
GRK2 = biological target: T1, GRK2 (Bos taurus, UniProt P21146, S670A, species not given); test: GRK2 kinase inhibition; type: biochemical
T1 sequence (P21146 1-689 S670A): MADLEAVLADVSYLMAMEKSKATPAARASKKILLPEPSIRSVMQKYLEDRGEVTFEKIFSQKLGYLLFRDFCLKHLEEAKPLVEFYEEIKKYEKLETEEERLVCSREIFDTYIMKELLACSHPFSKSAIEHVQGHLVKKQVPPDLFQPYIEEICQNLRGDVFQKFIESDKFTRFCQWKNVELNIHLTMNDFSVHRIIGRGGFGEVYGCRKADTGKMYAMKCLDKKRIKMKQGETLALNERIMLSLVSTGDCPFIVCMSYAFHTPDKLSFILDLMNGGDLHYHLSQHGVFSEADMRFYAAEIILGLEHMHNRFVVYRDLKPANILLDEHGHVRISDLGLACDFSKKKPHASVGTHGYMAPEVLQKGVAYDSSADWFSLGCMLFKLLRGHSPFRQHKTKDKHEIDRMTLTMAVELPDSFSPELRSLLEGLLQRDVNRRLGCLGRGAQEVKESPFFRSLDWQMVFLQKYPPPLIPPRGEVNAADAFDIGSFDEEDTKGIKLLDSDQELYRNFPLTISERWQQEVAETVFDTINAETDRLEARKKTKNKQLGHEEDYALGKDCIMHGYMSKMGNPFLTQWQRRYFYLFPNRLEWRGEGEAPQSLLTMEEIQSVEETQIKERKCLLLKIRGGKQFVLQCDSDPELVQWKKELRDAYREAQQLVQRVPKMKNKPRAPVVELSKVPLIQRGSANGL

ROCK1 = ROCK1 (Homo sapiens, UniProt Q13464); test: ROCK1 inhibition, ADP-Glo Kinase Assay
Sequence of ROCK1 (Q13464 whole entry, species assumed): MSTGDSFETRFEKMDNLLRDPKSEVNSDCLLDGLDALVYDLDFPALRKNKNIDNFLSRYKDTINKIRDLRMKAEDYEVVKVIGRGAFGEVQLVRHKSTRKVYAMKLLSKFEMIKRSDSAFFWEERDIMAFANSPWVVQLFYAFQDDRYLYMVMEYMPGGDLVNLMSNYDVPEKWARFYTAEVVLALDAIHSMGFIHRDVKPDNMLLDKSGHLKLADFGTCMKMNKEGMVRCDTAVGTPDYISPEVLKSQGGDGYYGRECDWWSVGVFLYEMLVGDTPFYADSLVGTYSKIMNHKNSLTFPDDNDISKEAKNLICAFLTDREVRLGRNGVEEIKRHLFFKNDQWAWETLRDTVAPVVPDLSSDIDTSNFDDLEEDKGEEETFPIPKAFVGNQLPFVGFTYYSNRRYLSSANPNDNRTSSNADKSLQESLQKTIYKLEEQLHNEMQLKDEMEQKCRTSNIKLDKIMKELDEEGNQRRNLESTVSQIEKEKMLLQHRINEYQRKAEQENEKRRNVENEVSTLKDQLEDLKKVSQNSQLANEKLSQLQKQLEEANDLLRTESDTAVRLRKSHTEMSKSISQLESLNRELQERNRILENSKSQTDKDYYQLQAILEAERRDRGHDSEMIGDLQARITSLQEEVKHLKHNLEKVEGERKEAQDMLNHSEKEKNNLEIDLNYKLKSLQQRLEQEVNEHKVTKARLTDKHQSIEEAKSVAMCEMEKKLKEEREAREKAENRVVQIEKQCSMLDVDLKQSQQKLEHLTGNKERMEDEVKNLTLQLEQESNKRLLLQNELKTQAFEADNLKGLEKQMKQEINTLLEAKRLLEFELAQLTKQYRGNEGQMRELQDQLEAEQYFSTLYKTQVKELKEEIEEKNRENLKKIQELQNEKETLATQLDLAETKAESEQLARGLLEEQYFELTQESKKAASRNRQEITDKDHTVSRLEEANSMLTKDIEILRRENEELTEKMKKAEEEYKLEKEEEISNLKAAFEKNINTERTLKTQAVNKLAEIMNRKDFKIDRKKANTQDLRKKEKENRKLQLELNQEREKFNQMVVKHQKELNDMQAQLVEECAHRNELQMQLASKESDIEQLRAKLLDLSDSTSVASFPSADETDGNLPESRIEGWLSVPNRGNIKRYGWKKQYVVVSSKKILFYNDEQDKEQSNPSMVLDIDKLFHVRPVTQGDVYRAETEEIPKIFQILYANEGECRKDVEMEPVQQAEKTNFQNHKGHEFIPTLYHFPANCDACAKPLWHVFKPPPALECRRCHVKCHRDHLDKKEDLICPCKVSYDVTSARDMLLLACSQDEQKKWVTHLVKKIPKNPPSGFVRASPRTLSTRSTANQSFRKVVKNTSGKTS

COc1ccccc1CNC(=O)c1cc(C2NC(=O)NC(C)=C2C(=O)Nc2ccc3[nH]ncc3c2)ccc1F (stereo not shown) [Compound 12e, 4-(4-Fluoro-3-((2-methoxybenzyl)carbamoyl)phenyl)-N-(1H-indazol-5-yl)-6-methyl-2-oxo-1,2,3,4-tetrahydropyrimidine-5-carboxamide]
IC50 (PKA): > 100 µM

CC1=C(C(=O)Nc2ccc3[nH]ncc3c2)C(c2ccc(F)c(C(=O)NCc3c(F)cccc3F)c2)NC(=O)N1 (stereo not shown) [Compound 12d, 4-(3-((2,6-Difluorobenzyl)carbamoyl)-4-fluorophenyl)-N-(1H-indazol-5-yl)-6-methyl-2-oxo-1,2,3,4-tetrahydropyrimidine-5-carboxamide]
IC50 (PKA): > 100 µM
potency at stimulating cardiomyocyte contraction [1]: equivalent to or slightly more potent than the lead 2

CC1=C(C(=O)Nc2ccc3[nH]ncc3c2)C(c2ccc(F)c(C(=O)NCc3ccccc3)c2)NC(=O)N1 (stereo not shown) [Compound 12b, 4-(3-(Benzylcarbamoyl)-4-fluorophenyl)-N-(1H-indazol-5-yl)-6-methyl-2-oxo-1,2,3,4-tetrahydropyrimidine-5-carboxamide]
IC50 (PKA): > 100 µM

CC1=C(C(=O)Nc2ccc3[nH]ncc3c2)C(c2ccc(F)c(C(=O)NCc3c(C)cccc3C)c2)NC(=O)N1 (stereo not shown) [Compound 12m, 4-(3-((2,6-Dimethylbenzyl)carbamoyl)-4-fluorophenyl)-N-(1H-indazol-5-yl)-6-methyl-2-oxo-1,2,3,4-tetrahydropyrimidine-5 carboxamide]
IC50 (PKA): > 100 µM
potency at stimulating cardiomyocyte contraction [1]: equivalent to or slightly more potent than the lead 2

CC1=C(C(=O)Nc2ccc3[nH]ncc3c2)C(c2ccc(F)c(C(=O)NCCc3ccncc3)c2)NC(=O)N1 (stereo not shown) [Compound 12j, 4-(4-Fluoro-3-((2-(pyridin-4-yl)ethyl)carbamoyl)phenyl)-N-(1H-indazol-5-yl)-6-methyl-2-oxo-1,2,3,4-tetrahydropyrimidine-5-carboxamide]
IC50 (PKA): > 100 µM

CC1=C(C(=O)Nc2ccc3[nH]ncc3c2)C(c2ccc(F)c(CC(=O)NCc3c(C(F)(F)F)cccc3C(F)(F)F)c2)NC(=O)N1 (stereo not shown) [Compound 13b, 4-(3-(2-((2,6-Bis(trifluoromethyl)benzyl)amino)-2-oxoethyl)-4-fluorophenyl)-N-(1H-indazol-5-yl)-6-methyl-2-oxo-1,2,3,4-tetrahydropyrimidine-5-carboxamide]
IC50 (PKA): > 100 µM

CC1=C(C(=O)N(C)c2ccc3[nH]ncc3c2)C(c2ccc(F)c(C(=O)NCc3c(C)cccc3C)c2)NC(=O)N1 (stereo not shown) [Compound 20, 4-(3-((2,6-Dimethylbenzyl)carbamoyl)-4-fluorophenyl)-N-(1H-indazol-5-yl)-N,6-dimethyl-2-oxo-1,2,3,4-tetrahydropyrimidine-5-carboxamide]
decrease in potency at GRK2 compared to 12m (GRK2): ~70 fold
IC50 (PKA): > 100 µM

CC1=C(C(=O)Nc2ccc3[nH]ncc3c2)C(c2ccc(F)c(C(=O)NCc3cccc(F)c3)c2)NC(=O)N1 (stereo not shown) [Compound 12c, 4-(4-Fluoro-3-((3-fluorobenzyl)carbamoyl)phenyl)-N-(1H-indazol-5-yl)-6-methyl-2-oxo-1,2,3,4-tetrahydropyrimidine-5-carboxamide]
IC50 (PKA): > 100 µM

CC1=C(C(=O)Nc2ccc3[nH]ncc3c2)C(c2ccc(F)cc2)NC(=O)N1 (stereo not shown) [Compound 2, GSK180736A, reference compound]
concentration showing similar efficacy as paroxetine (10 μM) on contractility ([1]; isoproterenol 0.5 μM, 10 min pretreatment): 1 µM

CNC(=O)c1cc(C2NC(=O)NC(C)=C2C(=O)Nc2ccc3[nH]ncc3c2)ccc1F (stereo not shown) [Compound 12a, 4-(4-Fluoro-3-(methylcarbamoyl)phenyl)-N-(1H-indazol-5-yl)-6-methyl-2-oxo-1,2,3,4-tetrahydropyrimidine-5-carboxamide]
loss in potency against GRK2 relative to 2 (GRK2): 5 fold
IC50 (PKA): > 100 µM

CC1=C(C(=O)Nc2ccc3c(c2)OCO3)C(c2ccc(F)c(C(=O)NCc3ccccn3)c2)NC(=O)N1 (stereo not shown) [Compound 24, N-(Benzo[d][1,3]dioxol-5-yl)-4-(4-fluoro-3-((pyridin-2-ylmethyl)carbamoyl)phenyl)-6-methyl-2-oxo-1,2,3,4-tetrahydropyrimidine-5-carboxamide]
kinase inhibition (GRK2; GRK2, GRK1, GRK5, PKA (Table 2)): completely inactive
IC50 (PKA): > 100 µM

COc1cccc(CNC(=O)c2cc(C3NC(=O)NC(C)=C3C(=O)Nc3ccc4[nH]ncc4c3)ccc2F)c1 (stereo not shown) [Compound 12f, 4-(4-Fluoro-3-((3-methoxybenzyl)carbamoyl)phenyl)-N-(1H-indazol-5-yl)-6-methyl-2-oxo-1,2,3,4-tetrahydropyrimidine-5-carboxamide]
IC50 (PKA): > 100 µM

Fc1ccc([C@@H]2CCNC[C@H]2COc2ccc3c(c2)OCO3)cc1 [Paroxetine, paroxetine, reference compound]
IC50 (PKA): > 100 µM

CC1=C(C(=O)Nc2ccc3[nH]ncc3c2)C(c2ccc(F)c(CC(=O)NCc3c(C)cccc3C)c2)NC(=O)N1 (stereo not shown) [Compound 13a, 4-(3-(2-((2,6-Dimethylbenzyl)amino)-2-oxoethyl)-4-fluorophenyl)-N-(1H-indazol-5-yl)-6-methyl-2-oxo-1,2,3,4-tetrahydropyrimidine-5-carboxamide]
IC50 (PKA): > 100 µM

CC1=C(C(=O)Nc2ccc3[nH]ncc3c2)C(c2ccc(F)c(C(=O)NCCc3c(C)cccc3C)c2)NC(=O)N1 (stereo not shown) [Compound 12r, 4-(3-((2,6-Dimethylphenethyl)carbamoyl)-4-fluorophenyl)-N-(1H-indazol-5-yl)-6-methyl-2-oxo-1,2,3,4-tetrahydropyrimidine-5-carboxamide]
IC50 (PKA): > 100 µM

CC1=C(C(=O)Nc2ccc3[nH]ncc3c2)C(c2ccc(F)c(C(=O)NCc3c(C(F)(F)F)cccc3C(F)(F)F)c2)NC(=O)N1 (stereo not shown) [Compound 12o, 4-(3-((2,6-Bis(trifluoromethyl)benzyl)carbamoyl)-4-fluorophenyl)-N-(1H-indazol-5-yl)-6-methyl-2-oxo-1,2,3,4-tetrahydropyrimidine-5-carboxamide]
IC50 (PKA): > 100 µM

CC1=C(C(=O)Nc2ccc3[nH]ncc3c2)C(c2ccc(F)c(C(=O)NCc3cc(C(F)(F)F)cc(C(F)(F)F)c3)c2)NC(=O)N1 (stereo not shown) [Compound 12p, 4-(3-((3,5-Bis(trifluoromethyl)benzyl)carbamoyl)-4-fluorophenyl)-N-(1H-indazol-5-yl)-6-methyl-2-oxo-1,2,3,4-tetrahydropyrimidine-5-carboxamide]
IC50 (PKA): > 100 µM

CC1=C(C(=O)Nc2ccc3[nH]ncc3c2)C(c2ccc(F)c(C(=O)NCCc3ccccn3)c2)NC(=O)N1 (stereo not shown) [Compound 12i, 4-(4-Fluoro-3-((2-(pyridin-2-yl)ethyl)carbamoyl)phenyl)-N-(1H-indazol-5-yl)-6-methyl-2-oxo-1,2,3,4-tetrahydropyrimidine-5-carboxamide]
IC50 (PKA): > 100 µM

COc1cccc(OC)c1CNC(=O)Cc1cc(C2NC(=O)NC(C)=C2C(=O)Nc2ccc3[nH]ncc3c2)ccc1F (stereo not shown) [Compound 13c, 4-(3-(2-((2,6-Dimethoxybenzyl)amino)-2-oxoethyl)-4-fluorophenyl)-N-(1H-indazol-5-yl)-6-methyl-2-oxo-1,2,3,4-tetrahydropyrimidine-5-carboxamide]
IC50 (PKA): > 100 µM

CC1=C(C(=O)Nc2ccc3[nH]ncc3c2)C(c2ccc(F)c(C(=O)NCc3ncccc3C)c2)NC(=O)N1 (stereo not shown) [Compound 12q, 4-(4-Fluoro-3-(((3-methylpyridin-2-yl)methyl)carbamoyl)phenyl)-N-(1H-indazol-5-yl)-6-methyl-2-oxo-1,2,3,4-tetrahydropyrimidine-5-carboxamide]
IC50 (PKA): > 100 µM

CC1=C(C(=O)Nc2ccc3[nH]ncc3c2)C(c2ccc(F)c(C(=O)O)c2)NC(=O)N1 (stereo not shown) [Compound 10, 5-(5-((1H-Indazol-5-yl)carbamoyl)-6-methyl-2-oxo-1,2,3,4-tetrahydropyrimidin-4-yl)-2-fluorobenzoic acid]
loss in potency against GRK2 relative to 2 (GRK2): 20 fold
loss in potency against PKA relative to 2 (PKA): 2 fold

COc1ccc(CNC(=O)c2cc(C3NC(=O)NC(C)=C3C(=O)Nc3ccc4[nH]ncc4c3)ccc2F)cc1 (stereo not shown) [Compound 12g, 4-(4-Fluoro-3-((4-methoxybenzyl)carbamoyl)phenyl)-N-(1H-indazol-5-yl)-6-methyl-2-oxo-1,2,3,4-tetrahydropyrimidine-5-carboxamide]
IC50 (PKA): > 100 µM

CC1=C(C(=O)Nc2ccc3[nH]ncc3c2)C(c2ccc(F)c(C(=O)NCc3ccccn3)c2)NC(=O)N1 (stereo not shown) [Compound 12h, 4-(4-Fluoro-3-((pyridin-2-ylmethyl)carbamoyl)phenyl)-N-(1H-indazol-5-yl)-6-methyl-2-oxo-1,2,3,4-tetrahydropyrimidine-5-carboxamide]
IC50 (PKA): > 100 µM
IC50 (ROCK1): ~0.01 µM
increase in potency for ROCK1 over 2 (ROCK1): 10 fold
